Consider two molecules from US5843758A, “Enzyme based bioremediation” (priority 1994, dated 1998).

In experiment [1] the test system is CFVP hydrolysing enzyme (E3 esterase) in homogenate of OP-resistant L. cuprina strain RM2-6 [der-S]. Description: Radiometric partition assay for OP hydrolysis, whole-fly homogenate. Type of experiment: biochemical, Lucilia cuprina. The note with it: preliminary kinetic experiments. Here is the method: Enzyme samples were diluted in 0.1M imidazole-HCl buffer pH 7.0 ("imidazole buffer") to a final volume of 25 μl. Reactions were started by the addition of 25 μl of [^14 C-ethyl]-chlorfenvinphos (CFVP, 306.5 MBq/mmole, Internationale Isotope Munchen) diluted in imidazole buffer from a 7.5 mM stock solution in ethanol. The final chlorfenvinphos concentration was typically 50 or 75 μM for routine assays but can be much lower for the determination of kinetic parameters. The reaction was incubated at 30° C. and stopped by the addition of 300 μl dichloromethane and 150 µl of imidazole buffer containing 10 μM diethylphosphate (Eastman Kodak) followed by vigourous vortex mixing. The reactions were centrifuged to separate phases and 150 μl of the upper, aqueous phase was taken for scintillation counting to determine the amount of ^14 C-diethylphosphate produced by hydrolysis of CFVP. Incubations with boiled enzyme were also performed to control for non-enzymic hydrolysis of CFVP.
(i) Whole-fly homogenates: Assays were carried out on whole-fly homogenates using 50 μM CFVP. […] The boiled control hydrolysed CFVP at a rate of 0.48 pmol/min/mg protein. Homogenates derived from an OP-susceptible strain (LS2) hydrolysed CFVP at the same rate as the boiled control, indicating the absence of CFVP hydrolytic enzymic activity in OP-susceptible L. cuprina.

Experiment [2] addresses T1, Lucilia cuprina LcαE7 (E3) esterase, OP resistant allele, clone Lc7L103D (Gly to Asp at amino acid position 137) (Lucilia cuprina, UniProt Q25252, form not given/G137D).
T1 sequence (Q25252 1-570 G137D): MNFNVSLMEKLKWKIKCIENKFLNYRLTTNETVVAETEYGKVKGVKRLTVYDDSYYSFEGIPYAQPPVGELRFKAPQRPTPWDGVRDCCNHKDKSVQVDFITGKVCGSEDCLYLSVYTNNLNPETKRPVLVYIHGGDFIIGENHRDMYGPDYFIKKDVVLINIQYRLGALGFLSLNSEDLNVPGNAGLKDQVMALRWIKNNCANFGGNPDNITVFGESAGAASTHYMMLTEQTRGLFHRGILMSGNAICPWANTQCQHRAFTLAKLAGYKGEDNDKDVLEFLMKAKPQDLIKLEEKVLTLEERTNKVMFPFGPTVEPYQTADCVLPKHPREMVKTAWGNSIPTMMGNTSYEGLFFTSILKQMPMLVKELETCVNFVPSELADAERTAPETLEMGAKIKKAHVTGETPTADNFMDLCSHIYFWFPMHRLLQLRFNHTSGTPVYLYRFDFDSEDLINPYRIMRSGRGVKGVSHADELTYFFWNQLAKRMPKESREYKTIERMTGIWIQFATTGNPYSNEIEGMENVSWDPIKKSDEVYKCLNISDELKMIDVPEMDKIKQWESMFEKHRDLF
In words: Radiometric partition assay for OP hydrolysis, enzyme expressed in vitro (baculovirus/Sf9). It counts as biochemical. Here is the method:
(§1) The susceptible (clone Lc743) and resistant (clone Lc7L103D) alleles of LcαE7 were cloned into the baculovirus transfer vector, Bacpac 8 (Clonetech), 3' of the polyhedrin promoter. Transfections were conducted using a lipofection method with polybrene (Sigma) according to King, L. A. & Possee, R. D. (The Baculovirus Expression System: A Laboratory Guide, Chapman & Hall, London, 1992). One μg of DNA of each of the resulting constructs together with 200 ng of Bacpac 6 baculovirus DNA (Clonetech), linearised by digestion with the restriction enzyme BSU 36I (Progema), was incubated in a solution of hepes buffered saline containing 0.5% polybrene (Sigma) at room temperature for 10 minutes. The solution was then used to transfect a single well of a six well tissue culture plate pre-seeded 2 hr previously with 10^4 Sf9 (Spodoptera frugiperda) cells in 1.5 ml Grace's medium (King, L. A. & Possee, R. D, The Baculovirus Expression System: A Laboratory Guide, Chapman & Hall, London, 1992). After 12 hr, the medium was removed, made up to 10% DMSO and placed back over the cells for 5 minutes. This was then replaced with 3 ml of Grace's medium containing 10% fetal calf serum. Construct plus polybrene, linearised virus plus polybrene and polybrene only controls were conducted in parallel with transfections. […]

Experiment [3] concerns the target T2, Lucilia cuprina LcαE7 (E3) esterase, OP susceptible allele, clone Lc743 (printed Lc473), SEQ ID NO:3 (Lucilia cuprina, UniProt Q25252).
T2 sequence (Q25252 1-570): T1 sequence (Q25252 1-570 G137D) with D137G
Description: Malathion hydrolysis / time-dependent inhibition of the enzyme by malathion. It counts as biochemical. The note with it: in the presence of 4 μM malathion; supernatant of cells expressing the OP susceptible allele. Here is the method: as §1, with “1992).” for “1992). After 12 hr, the medium was removed, made up to 10% DMSO and placed back over the cells for 5 minutes. This was then replaced with 3 ml of Grace's medium containing 10% fetal calf serum. Construct plus polybrene, linearised virus plus polybrene and polybrene only controls were conducted in parallel with transfections.”
Initial rates of malathion hydrolysis by the supernatant of cells expressing the OP susceptible allele, […], was 3.3 pmole/min/μl from an initial concentration of 4 μM malathion. […] Malathion hydrolysis (0.5 pmoles/min/μl) was also detected in the supernatant of cells expressing the D. melanogaster homologue, DmaE7.

Substitutions are numbered along the chain they refer to.

`CCOP(=O)(OCC)OC(=CCl)c1ccc(Cl)cc1Cl` [CFVP, chlorfenvinphos]: the Km in experiment [1] (RM2-6 homogenate, CFVP hydrolysis, pH 7.0, 30° C.) was around 16 µM; in experiment [2] (cells expressing the Lc7L103D allele, CFVP hydrolysis, imidazole-HCl pH 7.0, 30° C., preliminary kinetic experiments, read-out: Km of the CFVP hydrolysing enzyme) it was around 16 µM. Besides, in experiment [1] (homogenates of the resistant strain), the “Vmax for the hydrolysis of CFVP” value is on record as “approximately 13 pmol/min/mg protein”. Besides, the “Vmax of CFVP hydrolysis” value in experiment [2] (cells expressing the OP resistant allele Lc7L103D, pH 7.0, 30° C.) is reported as “approximately 2.0 nmol/min/mg protein”.
In the case of `CCOC(=O)CC(SP(=S)(OC)OC)C(=O)OCC` (centres unmarked) [malathion], in experiment [3], the “half-life of enzyme inhibition by malathion” value is “about 20 minutes”.

For orientation: Km means the substrate concentration at which the rate is half of its maximum.
